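Values below derive from 48-hour exposures of cells grown in 96-well plates, with endpoints linearly interpolated between the two concentrations bracketing the appropriate inhibition level. TGI: total growth inhibition.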
Key:
Assay in all cases: inhibition of tumour cell growth, NCI panel, 48 h
UACC-257 melanoma = system: UACC-257 melanoma
A549 NSCLC = system: A549 NSCLC
A498 renal = system: A498 renal
RXF 393 renal = system: RXF 393 renal
NCI-H226 lung = system: NCI-H226 lung
IGROV1 ovarian = system: IGROV1 ovarian
OVCAR-3 ovarian = system: OVCAR-3 ovarian
SNB-75 CNS = system: SNB-75 CNS
HL-60(TB) leukemia = system: HL-60(TB) leukemia
HCT-116 colon = system: HCT-116 colon
M19-MEL melanoma = system: M19-MEL melanoma
COLO 205 colon = system: COLO 205 colon
HT29 colon = system: HT29 colon
CAKI-1 renal = system: CAKI-1 renal
RXF-631 renal = system: RXF-631 renal
LOX IMVI melanoma = system: LOX IMVI melanoma
SK-OV-3 ovarian = system: SK-OV-3 ovarian
KM20L2 colon = system: KM20L2 colon
TK-10 renal = system: TK-10 renal
U251 CNS = system: U251 CNS
MOLT-4 leukemia = system: MOLT-4 leukemia
SF-539 CNS = system: SF-539 CNS
HOP-92 NSCLC = system: HOP-92 NSCLC
RPMI-8226 leukemia = system: RPMI-8226 leukemia
UACC-62 melanoma = system: UACC-62 melanoma
NCI-H460 lung = system: NCI-H460 lung
UO-31 renal = system: UO-31 renal
HCT-15 colon = system: HCT-15 colon
NCI-H23 lung = system: NCI-H23 lung
SF-295 CNS = system: SF-295 CNS
SK-MEL-28 melanoma = system: SK-MEL-28 melanoma
SNB-78 CNS = system: SNB-78 CNS
OVCAR-4 ovarian = system: OVCAR-4 ovarian
SF-268 CNS = system: SF-268 CNS
LXFL 529 NSCLC = system: LXFL 529 NSCLC
DMS 273 small cell lung = system: DMS 273 small cell lung
DLD-1 colon = system: DLD-1 colon
HOP-62 NSCLC = system: HOP-62 NSCLC
NCI-H522 lung = system: NCI-H522 lung
SK-MEL-5 melanoma = system: SK-MEL-5 melanoma
SK-MEL-2 melanoma = system: SK-MEL-2 melanoma
ACHN renal = system: ACHN renal
HOP-18 NSCLC = system: HOP-18 NSCLC
MALME-3M melanoma = system: MALME-3M melanoma
HCC-2998 colon = system: HCC-2998 colon
OVCAR-8 ovarian = system: OVCAR-8 ovarian
M14 melanoma = system: M14 melanoma
EKVX NSCLC = system: EKVX NSCLC
786-0 renal = system: 786-0 renal
OVCAR-5 ovarian = system: OVCAR-5 ovarian
SW-620 colon = system: SW-620 colon
SN12C renal = system: SN12C renal
SNB-19 CNS = system: SNB-19 CNS
DMS 114 small cell lung = system: DMS 114 small cell lung
KM12 colon = system: KM12 colon
CCRF-CEM leukemia = system: CCRF-CEM leukemia
K-562 leukemia = system: K-562 leukemia

`c1ccc(-c2[o+]c(-c3ccccc3)c(-c3ccccc3)c(-c3ccccc3)c2-c2ccccc2)cc1` was tested, and the TGI (UACC-257 melanoma) was > 100 µM, the TGI (A549 NSCLC) was > 100 µM and the TGI (A498 renal) was > 100 µM. The TGI (RXF 393 renal) was > 100 µM, the TGI (NCI-H226 lung) was > 100 µM and the TGI (IGROV1 ovarian) was > 100 µM. For the same compound, the TGI (OVCAR-3 ovarian) was > 100 µM, the TGI (SNB-75 CNS) was > 100 µM and the TGI (HL-60(TB) leukemia) was > 100 µM. For the same compound, the TGI (HCT-116 colon) was > 100 µM, the TGI (M19-MEL melanoma) was > 100 µM and the TGI (COLO 205 colon) was > 100 µM. For the same compound, the TGI (HT29 colon) was > 100 µM, the TGI (CAKI-1 renal) was > 100 µM and the TGI (RXF-631 renal) was > 100 µM. For the same compound, the TGI (LOX IMVI melanoma) was > 100 µM, the TGI (SK-OV-3 ovarian) was > 100 µM and the TGI (KM20L2 colon) was > 100 µM. The TGI (TK-10 renal) was > 100 µM, the TGI (U251 CNS) was > 100 µM and the TGI (MOLT-4 leukemia) was > 100 µM. The TGI (SF-539 CNS) was > 100 µM, the TGI (HOP-92 NSCLC) was > 100 µM and the TGI (RPMI-8226 leukemia) was > 100 µM. For the same compound, the TGI (UACC-62 melanoma) was > 100 µM, the TGI (NCI-H460 lung) was > 100 µM and the TGI (UO-31 renal) was > 100 µM. The TGI (HCT-15 colon) was > 100 µM, the TGI (NCI-H23 lung) was > 100 µM and the TGI (SF-295 CNS) was > 100 µM. For the same compound, the TGI (SK-MEL-28 melanoma) was > 100 µM, the TGI (SNB-78 CNS) was > 100 µM and the TGI (OVCAR-4 ovarian) was > 100 µM. For the same compound, the TGI (SF-268 CNS) was > 100 µM, the TGI (LXFL 529 NSCLC) was > 100 µM and the TGI (DMS 273 small cell lung) was > 100 µM. The TGI (DLD-1 colon) was > 100 µM, the TGI (HOP-62 NSCLC) was > 100 µM and the TGI (NCI-H522 lung) was > 100 µM. The TGI (SK-MEL-5 melanoma) was > 100 µM, the TGI (SK-MEL-2 melanoma) was > 100 µM and the TGI (ACHN renal) was > 100 µM. For the same compound, the TGI (HOP-18 NSCLC) was > 100 µM, the TGI (MALME-3M melanoma) was > 100 µM and the TGI (HCC-2998 colon) was > 100 µM. The TGI (OVCAR-8 ovarian) was > 100 µM, the TGI (M14 melanoma) was > 100 µM and the TGI (EKVX NSCLC) was > 100 µM. For the same compound, the TGI (786-0 renal) was > 100 µM, the TGI (OVCAR-5 ovarian) was > 100 µM and the TGI (SW-620 colon) was > 100 µM. The TGI (SN12C renal) was > 100 µM.

With `O=C(Cc1nc(-c2ccccc2)cc(=O)n1-c1ccccc1Cl)c1ccncc1` the TGI (UACC-257 melanoma) was > 100 µM, the TGI (A549 NSCLC) was > 100 µM and the TGI (A498 renal) was > 100 µM. The TGI (RXF 393 renal) was > 100 µM, the TGI (NCI-H226 lung) was > 100 µM and the TGI (IGROV1 ovarian) was > 100 µM. For the same compound, the TGI (OVCAR-3 ovarian) was > 100 µM, the TGI (SNB-75 CNS) was 82.6 µM and the TGI (HL-60(TB) leukemia) was > 100 µM. For the same compound, the TGI (HCT-116 colon) was > 100 µM, the TGI (M19-MEL melanoma) was > 100 µM and the TGI (SNB-19 CNS) was > 100 µM. For the same compound, the TGI (COLO 205 colon) was > 100 µM, the TGI (HT29 colon) was > 100 µM and the TGI (CAKI-1 renal) was > 100 µM. For the same compound, the TGI (RXF-631 renal) was > 100 µM, the TGI (LOX IMVI melanoma) was > 100 µM and the TGI (SK-OV-3 ovarian) was > 100 µM. For the same compound, the TGI (KM20L2 colon) was > 100 µM, the TGI (TK-10 renal) was > 100 µM and the TGI (U251 CNS) was > 100 µM. For the same compound, the TGI (SF-539 CNS) was > 100 µM, the TGI (HOP-92 NSCLC) was > 100 µM and the TGI (UACC-62 melanoma) was > 100 µM. The TGI (DMS 114 small cell lung) was > 100 µM, the TGI (NCI-H460 lung) was > 100 µM and the TGI (UO-31 renal) was > 100 µM. For the same compound, the TGI (HCT-15 colon) was > 100 µM, the TGI (NCI-H23 lung) was > 100 µM and the TGI (SF-295 CNS) was > 100 µM. The TGI (SK-MEL-28 melanoma) was > 100 µM, the TGI (SNB-78 CNS) was > 100 µM and the TGI (OVCAR-4 ovarian) was > 100 µM. For the same compound, the TGI (KM12 colon) was > 100 µM, the TGI (SF-268 CNS) was > 100 µM and the TGI (LXFL 529 NSCLC) was > 100 µM. For the same compound, the TGI (DMS 273 small cell lung) was > 100 µM, the TGI (DLD-1 colon) was > 100 µM and the TGI (HOP-62 NSCLC) was > 100 µM. For the same compound, the TGI (NCI-H522 lung) was > 100 µM, the TGI (SK-MEL-5 melanoma) was > 100 µM and the TGI (SK-MEL-2 melanoma) was > 100 µM. The TGI (ACHN renal) was > 100 µM, the TGI (HOP-18 NSCLC) was > 100 µM and the TGI (CCRF-CEM leukemia) was > 100 µM. For the same compound, the TGI (MALME-3M melanoma) was > 100 µM, the TGI (HCC-2998 colon) was > 100 µM and the TGI (OVCAR-8 ovarian) was > 100 µM. For the same compound, the TGI (M14 melanoma) was > 100 µM, the TGI (EKVX NSCLC) was > 100 µM and the TGI (786-0 renal) was > 100 µM. The TGI (OVCAR-5 ovarian) was > 100 µM, the TGI (SW-620 colon) was > 100 µM and the TGI (SN12C renal) was > 100 µM. For the same compound, the TGI (K-562 leukemia) was > 100 µM.
